# Calls of active or inactive are those of the source. No cut-off for these calls is given here.
# Legend:
# [1] = target: T1, Ubiquitin carboxyl-terminal hydrolase 5 (Homo sapiens) (UniProt P45974); assay: Inhibition of USP5 by Ub-CHOP reporter assay
# T1 sequence (whole entry): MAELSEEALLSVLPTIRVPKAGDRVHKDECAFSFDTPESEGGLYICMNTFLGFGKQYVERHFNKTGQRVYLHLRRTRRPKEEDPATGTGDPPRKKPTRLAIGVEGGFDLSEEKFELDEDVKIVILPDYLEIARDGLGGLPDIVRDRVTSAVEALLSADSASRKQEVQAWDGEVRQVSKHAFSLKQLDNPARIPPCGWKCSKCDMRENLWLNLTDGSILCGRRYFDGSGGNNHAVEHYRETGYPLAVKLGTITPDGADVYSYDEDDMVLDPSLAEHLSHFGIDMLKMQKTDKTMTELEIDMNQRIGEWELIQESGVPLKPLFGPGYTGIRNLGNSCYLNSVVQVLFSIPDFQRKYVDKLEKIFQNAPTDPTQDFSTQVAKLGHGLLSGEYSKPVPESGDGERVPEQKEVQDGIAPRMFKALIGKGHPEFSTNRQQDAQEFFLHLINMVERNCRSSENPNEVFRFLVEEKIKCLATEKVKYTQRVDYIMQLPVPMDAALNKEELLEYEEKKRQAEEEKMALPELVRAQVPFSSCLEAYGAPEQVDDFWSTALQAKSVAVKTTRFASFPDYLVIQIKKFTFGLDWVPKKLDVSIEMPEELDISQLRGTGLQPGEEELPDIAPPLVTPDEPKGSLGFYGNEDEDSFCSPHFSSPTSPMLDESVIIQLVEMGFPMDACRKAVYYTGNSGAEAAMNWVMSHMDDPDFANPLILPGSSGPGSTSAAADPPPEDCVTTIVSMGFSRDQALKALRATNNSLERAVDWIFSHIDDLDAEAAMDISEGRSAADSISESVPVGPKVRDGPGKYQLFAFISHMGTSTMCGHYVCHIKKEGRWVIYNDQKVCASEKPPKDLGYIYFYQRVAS
# HCT-116 = assay: Cytotoxicity against human HCT116 cells after 72 hrs; type: functional, cell-based
# [2] = target: T2, Calpain-1 catalytic subunit (Homo sapiens) (UniProt P07384); assay: Inhibition of calpain1
# T2 sequence (whole entry): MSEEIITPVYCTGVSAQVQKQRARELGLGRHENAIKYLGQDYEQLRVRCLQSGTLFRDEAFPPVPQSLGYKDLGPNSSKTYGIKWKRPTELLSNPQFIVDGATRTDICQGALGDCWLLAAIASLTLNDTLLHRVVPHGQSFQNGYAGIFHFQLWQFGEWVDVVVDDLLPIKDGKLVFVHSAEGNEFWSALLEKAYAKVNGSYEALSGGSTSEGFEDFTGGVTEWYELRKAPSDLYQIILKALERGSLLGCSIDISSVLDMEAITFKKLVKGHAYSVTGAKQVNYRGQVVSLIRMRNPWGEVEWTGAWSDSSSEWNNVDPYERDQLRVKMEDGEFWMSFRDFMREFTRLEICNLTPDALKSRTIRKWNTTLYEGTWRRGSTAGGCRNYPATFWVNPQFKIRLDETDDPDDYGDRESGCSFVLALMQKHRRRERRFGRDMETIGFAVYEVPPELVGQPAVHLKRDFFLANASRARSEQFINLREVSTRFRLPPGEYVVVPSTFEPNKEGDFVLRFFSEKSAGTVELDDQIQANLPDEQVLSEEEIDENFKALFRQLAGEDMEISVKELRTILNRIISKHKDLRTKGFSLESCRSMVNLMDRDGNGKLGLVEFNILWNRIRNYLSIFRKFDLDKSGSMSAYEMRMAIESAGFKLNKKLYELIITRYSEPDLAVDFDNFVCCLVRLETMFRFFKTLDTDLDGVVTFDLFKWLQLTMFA
# [3] = target: T3, Ubiquitin carboxyl-terminal hydrolase 28 (Homo sapiens) (UniProt Q96RU2); assay: Inhibition of USP28 by Ub-CHOP reporter assay
# T3 sequence (whole entry): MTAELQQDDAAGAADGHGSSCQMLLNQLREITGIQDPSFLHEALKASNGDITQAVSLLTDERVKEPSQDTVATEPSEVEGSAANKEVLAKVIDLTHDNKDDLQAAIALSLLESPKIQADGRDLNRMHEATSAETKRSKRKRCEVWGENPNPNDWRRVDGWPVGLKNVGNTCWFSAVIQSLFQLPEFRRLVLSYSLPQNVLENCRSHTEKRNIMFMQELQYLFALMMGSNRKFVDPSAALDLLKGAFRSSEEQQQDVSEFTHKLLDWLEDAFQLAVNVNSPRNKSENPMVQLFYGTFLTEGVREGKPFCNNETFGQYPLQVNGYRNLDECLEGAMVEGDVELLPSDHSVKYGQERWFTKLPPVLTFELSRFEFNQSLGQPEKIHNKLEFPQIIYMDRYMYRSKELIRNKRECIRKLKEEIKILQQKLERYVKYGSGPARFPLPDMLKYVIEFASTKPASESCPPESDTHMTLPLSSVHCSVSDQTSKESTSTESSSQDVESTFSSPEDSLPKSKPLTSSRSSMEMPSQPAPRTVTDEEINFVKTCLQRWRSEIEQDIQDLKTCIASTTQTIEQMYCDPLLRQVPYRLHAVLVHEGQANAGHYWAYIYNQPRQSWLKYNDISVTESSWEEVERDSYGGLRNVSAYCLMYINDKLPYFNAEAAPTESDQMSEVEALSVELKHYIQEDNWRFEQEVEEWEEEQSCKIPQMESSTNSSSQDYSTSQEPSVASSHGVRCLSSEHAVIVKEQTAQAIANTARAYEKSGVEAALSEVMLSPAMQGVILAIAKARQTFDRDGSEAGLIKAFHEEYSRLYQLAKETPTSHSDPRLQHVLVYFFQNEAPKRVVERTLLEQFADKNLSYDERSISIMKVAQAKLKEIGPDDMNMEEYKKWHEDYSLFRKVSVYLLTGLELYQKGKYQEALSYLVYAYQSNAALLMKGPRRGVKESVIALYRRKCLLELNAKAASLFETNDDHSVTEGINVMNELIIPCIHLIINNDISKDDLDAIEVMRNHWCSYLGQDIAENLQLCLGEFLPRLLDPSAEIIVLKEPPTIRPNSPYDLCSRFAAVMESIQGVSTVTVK
smiles,measurement,setting,value
CS(=O)(=O)c1ccc(NC(=O)c2cc(C#N)c(Sc3c(Cl)cncc3Cl)s2)cc1,inhibition,[1],inactive
same,Activity,HCT-116,Active
same,inhibition,[2],inactive
same,inhibition,[3],inactive

# From ChEMBL document CHEMBL2157895, “Selective Dual Inhibitors of the Cancer-Related Deubiquitylating Proteases USP7 and USP47” (ACS Med Chem Lett, 2012)
